From US7442763B2, “Compositions for treating abnormalities in glomerular filtration, patent ductus arteriosus and osteoporosis” (Hopital Sainte-Justine, priority 1999, dated 2008)
One block for each compound: values may come before it. Square brackets hold non-standard residues; d marks the D form. Ends that are not written are not given here. Bip = N[C@@H](Cc1ccc(-c2ccccc2)cc1)C(=O)O; Dip = N[C@H](C(=O)O)C(c1ccccc1)c1ccccc1; hPhe = N[C@@H](CCc1ccccc1)C(=O)O

Legend:
saphenous vein of piglet = assay: PGE2-induced dilation of saphenous vein rings, organ bath assay; set-up: species or system Yorkshire piglets; settings: 1 μM peptides, 1 μM PGE2; rings pre-constricted with U46619; average of 2-8 experiments
Method: Animals. Yorkshire piglets (2-4 days old) were used in this study, according to a protocol approved by the Animal Care Committee of the Research Centre of Ste-Justine Hospital. Briefly, animals were anesthetized with 1.5% halothane and the lower external saphenous veins removed and placed in cold Krebs buffer (pH 7.4) of the following composition (mM): NaCl 120, KCl 4.5, CaCl2 2.5, MgSO4 1.0, NaHCO3 27, KH2PO4 1.0, glucose 10, to which 1.5 U/ml heparin was added.
Organ bath assay. The saphenous veins were cleaned of extraneous tissue and cut into 4 mm rings that were placed in individual jacketed organ baths (15 ml; Radnoti Glass, Monrovia, Calif.) containing Krebs buffer and maintained at 37° C. The solution was bubbled with a mixture of 95% O2-5% CO2. In each experiment, 8 rings were used (4 from each saphenous vein) and were equilibrated for 60 min under 2.0 gr passive tension, with frequent washing and tension adjustment. Tension was measured by force-displacement transducers and was recorded on a computerized data acquisition system using the Work Bench software (both from Kent Scientific, Litchfield, Conn.).
Experimental protocol. In a first set of experiments, the relative distribution of dilatory EP receptor subtypes was ascertained using a combination of EP receptor agonists and antagonists. The vasodilatory response of the lower external saphenous veins to PGE2 appears to result from the stimulation of 30% EP2 and 70% EP4. Tissues were initially challenged with 2×10^−7 U46619 which induced a 1.5 to 2.0 gr increase in tension. […] When the response to U46619 reached a steady state, agents were added. When no response to the agents were observed, a period of 10 minutes was allowed to insure proper distribution of the agents in the tissue. Dose-response curves to PGE2 (10^−10−10^−6 M) were then obtained in the presence of absence of each of the tested drugs.
The results are average of 2-8 experiments. The results are tabulated as percent reversal of 1 μM PGE2-induced […] in the presence of 1 μM peptides. The peptides shown here contain productive and effective substitutions in the parent peptide PHG 213 (SEQ ID NO:1)

EP4 receptor [1] = biological target: EP4 receptor (Homo sapiens, UniProt P35408, P4S); assay: Basal and PGE2-stimulated cAMP levels in EP4/293 cells; format: cell-based
Sequence of EP4 receptor (Homo sapiens, UniProt P35408, P4S) (P35408 whole entry P4S): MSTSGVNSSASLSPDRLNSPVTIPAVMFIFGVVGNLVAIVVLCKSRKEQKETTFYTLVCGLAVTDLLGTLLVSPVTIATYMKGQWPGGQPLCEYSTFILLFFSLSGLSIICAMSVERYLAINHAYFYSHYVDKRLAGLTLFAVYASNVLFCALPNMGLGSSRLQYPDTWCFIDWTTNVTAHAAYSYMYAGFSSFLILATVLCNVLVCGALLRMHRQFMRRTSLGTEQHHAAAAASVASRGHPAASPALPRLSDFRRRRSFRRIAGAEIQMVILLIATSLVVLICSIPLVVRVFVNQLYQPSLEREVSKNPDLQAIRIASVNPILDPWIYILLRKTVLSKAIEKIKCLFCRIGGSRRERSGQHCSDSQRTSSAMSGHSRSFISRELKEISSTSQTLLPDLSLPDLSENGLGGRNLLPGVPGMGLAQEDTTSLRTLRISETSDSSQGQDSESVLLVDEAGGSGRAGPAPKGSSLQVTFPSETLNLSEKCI
Source text: (§1) Data are averages of four replicates.

[2] = tested on: ductus arteriosus of fetal sheep; assay: Ductus arteriosus diameter in fetal sheep by Doppler echocardiography; format: in vivo; settings: 2 mg bolus followed by 1 mg/Kg infusion over 15 min
Method: Pregnant ewes (129-140 days of gestation) was anesthetized with ketamine (30 mg/Kg i.v.), a caesarian section was performed and the fetus exteriorized. To mimic fetal respiratory conditions, the head of the fetus was submerged in a glove filled with saline. Femoral and jugular veins were catheterized for systemic blood pressure measurements and drug infusions respectively. Ducuts arteriosus (DA) diameter was measured using Doppler echocardiography as described before (Teyssier, G. et al. 1989. J. Cardiovascular Technol. 8: 259-266). Echocardiographic measurements were performed with an Acuson 128 XP/10C real time ultrasound imaging system using 7.5 or 5-MHz transducers duplexed with a range-gated Doppler. Doppler signals were filtered by a 100-Hz high-pass filter. The DA was visualized through a left second intercostal parasternal approach. After the drugs were injected, measurements of DA diameter were repeated 3 times at 5 min intervals for the next 20-25 min.
DA was unchanged for 40 min during the stabilization period. […] PHG213, a peptide antagonist of EP4 receptor, blocked the dilatory action of the receptor which is responsible for maintaining the ductus open in the fetus.

diabetic rats = assay: Glomerular filtration rate and urinary volume in streptozotocin-induced diabetic rats; format: in vivo, Sprague-Dawley adult rats; settings: systemic infusion
Method: (§2) Method: Sprague-Dawley adult rats (˜250 g) were anesthetized with 50 mg/kg pentobarbitone. Left jugular vein (for infusion) and left carotid artery (for measuring blood pressure) were catheterized and another catheter was placed at the tip of the bladder for collecting urine. Infusion of [^3H]-inulin in saline (2 μCi/Kg/h) was started and continued for 2 h to stabilize the system. Urine collection was exactly for 20 min and at 10 min mark, 0.1 ml of blood was withdrawn into heparinized tubes. Blood was centrifuged and radioactivity in plasma was counted. After 10 min and 30 min (30 min and 60 min since the start of the previous urine collection), the process was repeated. The antagonist, PHG 213, was infused in saline i.v. at 6 μmol/Kg/h for one hour before the start of first urine collection. Urinary volume (UV) is calculated and expressed as μl of urine/h corrected for the weight of the animal. GFR was calculated as the ratio of urinary […] corrected for the volume of the urine and the weight of the animal.
Method: Sprague-Dawley adult rats (˜250 g) were injected i.p. with streptozotocin (45-50 mg/Kg) and two days later, the urine was tested for glucose and proteinuria. Two weeks later, the rats that tested positive for both markers were chosen to test the effects of PHG 213 (SEQ ID NO:1) on GFR and UV using a method described above.

[3] = tested on: human fetal spleen cells in coculture with fixed SaOS-2 cells; assay: Osteoclastogenesis (TRAP+ cells) in coculture of human fetal spleen cells and fixed SaOS-2 cells; format: cell-based; settings: PHG213 100 μM, three days; n=10
Method: Method: SaOs-2 cells (immortalized cell line of human osteoblasts) were grown for four days in 24-well plates in alpha-MEM medium containing 10% fetal calf serum , vitamin D3 (10^−7). Confluent SaOs-2 cells were fixed in 1% paraformaldehyde M) and dexamethasone (10^−8 M in phosphate-buffered sline (PBS) for 8 min. The cells were rinsed with PBS 4 times and alpha-MEM containing 10% fetal calf serum and vitamin D3 (10^−7 M) was added.
Two days before, spleens from human abortuses were cut into small pieces and triturated several times release the cells. The spleen cells were cultured in alpha-MEM containing 10% fetal calf serum for 2 days. Spleen cells were trypsinized, rinsed once in PBS and counted using a coulter counter. An aliquot of spleen cells (10^5 cells/well) were placed over the monolayer of fixed SaOs-2 cells for 2 h, after which PHG213 (100 μM) was added. Three days later, the cells were fixed in 4% paraformaldehyde in PBS, rinsed with water and tartarat-resistant […] (TRAP) was stained using a commercial kit (Sigma, St. Louis, Mo.). TRAP-positive cells were viewed under a microscope and counted.

normal rats = assay: Glomerular filtration rate and urinary volume in normal rats; format: in vivo, Sprague-Dawley adult rats; settings: i.v. infusion 6 μmol/Kg/h
Method: as §2

EP4 receptor [4] = assay: Ocular perfusion pressure in porcine eye model (ex vivo vasomotricity of choroid); set-up: species or system newborn pig; settings: PHG213 infused at 100 μM after U46619 1 μM and PGE2 1 μM
Source text: In order to test the efficacy of PHG213 (SEQ ID NO: 1) on EP4 receptor function, an ex vivo assay of vasomotricity of porcine choroid was used. The dilatory response to PGE2 in this vascular bed was previously shoen to be mediated by EP4 receptor (Abran, D. et al. 1997. Am. J. Physiol. 272: R995-1001).
Method: The method as described in detail by Abran et al. (1997) was followed exactly. A vortex vein from the eye of a newborn pig was catheterized with a 27-gauge needle and perfused with Kreb's solution until perfusion pressure was stable. The vasculature was first constricted with a thromboxane mimetic, U46619 (1 μM), and then PGE2 was infused at 1 μM. Once the reversal of constriction reached a plateau, then PHG213 was infused at 100 μM and the perfusion pressure was recorded.
Positive values of perfusion pressure indicate constriction whereas negative values indicate dilation of the vasculature. PGE2 reversed the constriction produced by U46619. […] Since it is known that the dilatory effects of PGE2 are predominantly mediated by EP4 receptor in choroid of the newborn pig, PHG 213 antagonized the actions of EP4 receptor and blocked the dilation produced by this receptor.

EP4 receptor [5] = assay: Basal and PGE2-stimulated cAMP levels in EP4/293 cells; format: cell-based, Human; settings: forskolin 100 μM added for 15 min, 100 μM IBMX
Source text: as §1

Compound: 6 (IFTSYDCL; Peptide inhibitor of prostaglandin E2 receptor subtype EP4) [compound 6]
- % blockade of PGE2 induced vasodilation (saphenous vein of piglet): 30.0%

Compound: 2 (IFASYECL; Peptide inhibitor of prostaglandin E2 receptor subtype EP4) [compound 2]
- % blockade of PGE2 induced vasodilation (saphenous vein of piglet): 35.0%

- CAMP (pmol/ml/10^5 cells) (EP4 receptor [1]; PGE2 1 μM added for 15 min, 100 μM IBMX): >270 pmol/ml/10^5 cells
Compound: CCCCC[C@H](O)/C=C/[C@H]1[C@H](O)CC(=O)[C@@H]1C/C=C\CCCC(=O)O [PGE2, Prostaglandin E2, reference compound]

Compound: 9 ([hPhe]TSYEAL) [compound 9]
- % blockade of PGE2 induced vasodilation (saphenous vein of piglet): 34.0%

Compound: 7 ([Bip]TSYEAL) [compound 7]
- % blockade of PGE2 induced vasodilation (saphenous vein of piglet): 65.5%

Compound: 8 ([Dip]TSYEAL) [compound 8]
- % blockade of PGE2 induced vasodilation (saphenous vein of piglet): 64.5%

Compound: 5 (ILASYECL; Peptide inhibitor of prostaglandin E2 receptor subtype EP4) [compound 5]
- % blockade of PGE2 induced vasodilation (saphenous vein of piglet): 60.0%

- % inhibition of basal cAMP levels (EP4 receptor [1]; PHG213 100 μM with 100 μM IBMX for 1 h): 60.7%
- CAMP (pmol/ml/10^5 cells) (EP4 receptor [1]; basal, PHG213 100 μM with 100 μM IBMX for 1 h, vehicle 69.9): 27.5 pmol/ml/10^5 cells
Compound: PHG213: peptide antagonist of EP4 receptor, parent peptide, D-amino acids (IFTSYECL; also: D-amino acids, places not given here)
- Ductus arteriosus (DA) diameter [2]: started to constrict and continued for another 15 min and was irreversible
- GFR (diabetic rats): increased
- Mean blood pressure (diabetic rats): not significantly altered
- UV (diabetic rats): increased
- Reduction of number of TRAP-positive cells (osteoclasts) [3]: half
- Glomerular filtration rate (GFR) increase (normal rats): 157%
- Mean blood pressure (normal rats): not significantly altered
- Urinary flow rate (UV) increase (normal rats): 2.3 fold
- Block of the dilatory effect of PGE2 on ocular perfusion pressure (EP4 receptor [4]): blocked this dilatory effect of PGE2 completely

Compound: 1 (IFTSYECL; Peptide inhibitor of prostaglandin E2 receptor subtype EP4) [compound 1]
- % blockade of PGE2 induced vasodilation (saphenous vein of piglet): 50.0%

Compound: 4 (IFTSYEAL; Peptide inhibitor of prostaglandin E2 receptor subtype EP4) [compound 4]
- % blockade of PGE2 induced vasodilation (saphenous vein of piglet): 60.0%

Compound: C=C[C@@]1(C)CC(=O)[C@]2(O)[C@@]3(C)[C@@H](O)CCC(C)(C)[C@@H]3[C@H](O)[C@H](OC(C)=O)[C@@]2(C)O1 [FSK, forskolin, reference compound]
- CAMP (pmol/ml/10^5 cells) (EP4 receptor [5]): >270 pmol/ml/10^5 cells

Compound: 3 (IFTSAECL; Peptide inhibitor of prostaglandin E2 receptor subtype EP4) [compound 3]
- % blockade of PGE2 induced vasodilation (saphenous vein of piglet): 20.0%
